# Source: US4044132A, “Substituted piperazine derivative, its preparation and anorexia compositions containing it” (Synthelabo, priority 1975, dated 1977)
# Like-named read-outs stand apart in the source and are kept apart here.
# What was measured:
# [1] = test system: CDl mice; assay: Acute toxicity (50% lethal dose, determined graphically); assay type: in vivo
# Method: (§1) Acute toxicity: the experiments were carried out on CDl mice of average weight 20 g. The 50% lethal dose (LD 50) was determined graphically.
# [2] = as above; assay type: in vivo, mice (CDl); conditions: mouse, in vivo, CDl mice
# Method: as §1
# [3] = test system: rats; assay: Anorexia-inducing action, food consumption of female SJ (Janvier) rats; assay type: in vivo; conditions: for ED50: Rattus norvegicus, female SJ (Janvier) rats, oral, 1 hour before distribution of food
# Method: (§2) The experiment was carried out by administering each compound orally at several doses to batches of 8 animals per dose, 1 hour before the distribution of the food, and graphically determining the 50% active doses (AD 50 = dose capable of reducing the food consumption by 50%).
# [4] = test system: rats; assay: Anorexia-inducing action, food consumption of male Charles River rats, 1 hour and 6 hours after administration; assay type: in vivo; conditions: Rattus norvegicus, oral
# Method: as §2
# The AD 50 (i.e. the dose which reduces food consumption by 50% compared with untreated controls) was also determined, in the same way as that described above, on male `Charles River` rats, 1 hour and 6 hours after administration of the compounds under test.
# [5] = test system: CD1 mice; assay: Conventional actimetry test (motility); assay type: in vivo
# [6] = intravenous, read-out: Acute toxicity LD 50, intravenous administration
# [7] = oral, read-out: Acute toxicity LD 50, oral administration
# [8] = 1st series, read-out: Anorexia-inducing action AD 50, administered orally, 1st series
# [9] = 2nd series, read-out: Anorexia-inducing action AD 50, administered orally, 2nd series
# [10] = after 1 hour, read-out: Anorexia-inducing Action AD 50 orally after 1 hour
# [11] = after 6 hours, read-out: Anorexia-inducing Action AD 50 orally after 6 hours
Structure (SMILES),toxicity ([1]; overall conclusion),therapeutic index ([1]; overall conclusion from LD 50 and AD 50),"LD50 [2, 6] [mg/kg]","LD50 [2, 7] [mg/kg]","ED50 [3, 8] [mg/kg]","ED50 [3, 9] [mg/kg]",anorexia-inducing activity compared with the reference compounds ([3]; overall conclusion from Tables I and II),"ED50 [4, 10] [mg/kg]","ED50 [4, 11] [mg/kg]","motor activity at higher doses ([5]; CD1 mice, 20 mg/kg)","motility at a low dose ([5]; CD1 mice, up to 5 mg/kg)",stimulant effect ([5]; overall conclusion)
"Fc1ccc(N2CCNCC2)cc1SC(F)(F)F [SLC-298, 1-(4-fluoro-3-trifluoromethylthiophenyl)-piperazine]",moderate,high,60,150,1.5,1.8,more active as an anorexia-inducing agent than the reference compounds,1.9,2.7,reduces the motor activity,only very slightly increases the motility,little or no stimulant effect
"Fc1ccc(N2CCNCC2)cc1C(F)(F)F [SLC-001, 1-(4-fluoro-3-trifluoromethyl-phenyl)-piperazine, reference compound]",–,–,59,150,–,2.2,–,2,> 6,–,–,–
"CCNC(C)Cc1cccc(C(F)(F)F)c1 (stereo not shown) [Fenfluramine, reference compound]",–,–,42,195,5,–,–,1.4,4,–,–,–
